Data taken from patent publication US20240285635A1, “USE OF PYRROLOPYRIMIDINE COMPOUND AND PHARMACEUTICAL COMPOSITION THEREOF FOR TREATING CHRONIC GRAFT VERSUS HOST DISEASE” (CHIA TAI TIANQING PHARMACEUTICAL GROUP CO., LTD., priority 2021, published 2024).
Several values for one entry are separate records, joined by “and”; a condition that tells them apart may be missing. Identical values can stand only once. Entries after “also recorded” stand apart in the source; their conditions may differ.

System: glucocorticoid-refractory/dependent moderate and severe cGVHD subjects
Assay: Clinical study of tablets of the compound of formula I in glucocorticoid-refractory/dependent moderate and severe cGVHD subjects
Format: in vivo, human
Design: key to C1 organ score and efficacy: efficacy / C3 organ score and efficacy: efficacy / C6 organ score and efficacy: efficacy / C9 organ score and efficacy: efficacy / C12 organ score and efficacy: efficacy: Complete response (CR): all reversible clinical symptoms of cGVHD were completely alleviated; Partial response (PR): there was improvement in at least one organ or site, but no improvement in all other organs or sites; Stable disease (SD): cGVHD clinical performance was not worsened compared to baseline; Disease progression (PD): any one organ or site was worsened
Protocol: As used herein, 2014 NIH cGVHD meeting consensus criteria was used for clinical diagnosis, disease grading, and evaluation of disease status or effectiveness.
As used herein, the severity of adverse events was determined using the NCI-CTC AE 5.0 criteria.
The subjects of the study were glucocorticoid-refractory/dependent moderate and severe cGVHD subjects. The safety and the tolerability of the tablets of the compound of formula I in the glucocorticoid-refractory/dependent moderate and severe cGVHD subjects were evaluated, and the efficacy and the safety of the tablets of the compound of formula I in the glucocorticoid-refractory/dependent moderate and severe cGVHD subjects were further evaluated.
Method of administration: orally administered twice daily at fasting, with 28 consecutive days of administration as one treatment cycle.
Drug: the tablets of the compound of formula I with 5 mg or 20 mg of the active ingredient, the compound of formula I being its stereoisomer, a compound of formula II
During the study, the investigator would evaluate the cGVHD activity through NIH consensus on cGVHD to define the response effect and make a record accordingly.
Complete response (CR): all reversible clinical symptoms of cGVHD were completely alleviated. Irreversible clinical manifestations would be defined by NIH consensus criteria.
Partial response (PR): there was improvement in at least one organ or site, but no improvement in all other organs or sites.
Stable disease (SD): cGVHD clinical performance was not worsened compared to baseline.
Disease progression (PD): any one organ or site was worsened. In addition, the emergence of new clinical manifestations of cGVHD was also counted as progression.
Objective response rate (ORR): refers to the percentage of subjects in complete response (CR) or partial response (PR) as determined by the investigator according to NIH cGVHD response assessment.
Best objective response rate (ORR): refers to the percentage of subjects whose best response was complete response (CR) or partial response (PR) as determined by the investigator according to NIH cGVHD response assessment.

[1] = 10 mg bid oral, cycle C1, individual subjects
[2] = 10 mg bid oral, cycle C1, individual subjects 1-4
[3] = 10 mg bid oral, cycle C3, individual subjects
[4] = 10 mg bid oral, cycle C3, individual subjects 1-4
[5] = 10 mg bid oral, cycle C6, individual subjects
[6] = 10 mg bid oral, cycle C6, individual subjects 1-4
[7] = 10 mg bid oral, cycle C9, individual subjects
[8] = 10 mg bid oral, cycle C9, individual subjects 1-4
[9] = 10 mg bid oral, cycle C12, individual subjects
[10] = 10 mg bid oral, cycle C12, individual subjects 1-2
[11] = 15 mg bid oral, cycle C1, individual subjects
[12] = 15 mg bid oral, cycle C1, individual subjects 5-8
[13] = 15 mg bid oral, cycle C3, individual subjects
[14] = 15 mg bid oral, cycle C3, individual subjects 5-8
[15] = 15 mg bid oral, cycle C6, individual subjects
[16] = 15 mg bid oral, cycle C6, individual subjects 5-8
[17] = 15 mg bid oral, cycle C9, subject 5
[18] = of the patients evaluated in Table 2, 10 or 15 mg bid

N#CC[C@H](C1CCCC1)n1cc(-c2ncnc3[nH]ccc23)c(N)n1 [compound of formula I]
C1 organ score: esophagus [1]: 1 point for points | C1 organ score: eye [1]: skin, 1 point points (2×) and 1 point for eye, points (2×) | C1 organ score: joint [1]: 1 point for points and 1 points | C1 organ score: lung [1]: 3 points for (2×) and 0 points for | C1 organ score: lung, percentage in parentheses [1]: lung (34.4%), and lung (81.8%), and 25% | C1 organ score: oral cavity [1]: 1 point for points | C1 organ score: skin [1]: 1 point for points and 3 points for | C1 organ score: upper digestive tract [1]: 1 point for points | C1 organ score and efficacy: comprehensive score [2]: score 6;; also recorded: score 1;; also recorded: score 2; | C1 organ score and efficacy: efficacy [2]: efficacy: PR | C3 organ score: esophagus [3]: 1 point for points | C3 organ score: eye [3]: 1 point for eye, points | C3 organ score: joint [3]: 1 point for points and 1 points | C3 organ score: joint fascia [3]: 2 points for | C3 organ score: lung [3]: 0 points for | C3 organ score: lung, percentage in parentheses [3]: lung (31%), and lung (81.0%), and 28.1% | C3 organ score: skin [3]: 1 point for points | C3 organ score: upper digestive tract [3]: 0 points for | C3 organ score and efficacy: comprehensive score [4]: score 5;; also recorded: score 1; | C3 organ score and efficacy: efficacy [4]: efficacy: PR | C6 organ score: esophagus [5]: 1 point for points | C6 organ score: eye [5]: 1 point for eye, points | C6 organ score: joint [5]: 1 point for points and 1 points | C6 organ score: joint fascia [5]: 2 points for | C6 organ score: lung [5]: 3 points for (2×) and 0 points for | C6 organ score: lung, percentage in parentheses [5]: lung (33%), and lung (80%), and 25.0% | C6 organ score: skin [5]: 1 point for points and 2 points for | C6 organ score: upper digestive tract [5]: 0 points for | C6 organ score and efficacy: comprehensive score [6]: score 5;; also recorded: score 1; | C6 organ score and efficacy: efficacy [6]: efficacy: PR | C9 organ score: esophagus [7]: 1 point for points and 0 points for | C9 organ score: eye [7]: skin, 0 points (2×) and 1 point for eye, points (2×) | C9 organ score: joint [7]: 1 point for points and 1 points | C9 organ score: lung [7]: 3 points for (2×) and 0 points for | C9 organ score: lung, percentage in parentheses [7]: lung (35.1%), and 26.6% | C9 organ score: skin [7]: 0 points for | C9 organ score: upper digestive tract [7]: 0 points for | C9 organ score and efficacy: comprehensive score [8]: score 5;; also recorded: score 0;; also recorded: score 1; | C9 organ score and efficacy: efficacy [8]: efficacy: PR; also recorded: efficacy: CR | C12 organ score: esophagus [9]: 1 point for points | C12 organ score: eye [9]: skin, 0 points | C12 organ score: joint fascia [9]: 2 points for | C12 organ score: lung [9]: 3 points for | C12 organ score: lung, percentage in parentheses [9]: lung (35.1%), | C12 organ score: skin [9]: 0 points for | C12 organ score: upper digestive tract [9]: 0 points for | C12 organ score and efficacy: comprehensive score [10]: score 5;; also recorded: score 0; | C12 organ score and efficacy: efficacy [10]: efficacy: PR; also recorded: efficacy: CR | C1 organ score: esophagus [11]: 0 points for | C1 organ score: eye [11]: skin, 1 point points; also recorded: skin, 2 points | C1 organ score: joint fascia [11]: 1 points and 1 point for points | C1 organ score: lower digestive tract [11]: 1 point for points | C1 organ score: lung [11]: tract, 3 points and 3 points for | C1 organ score: lung, percentage in parentheses [11]: 20.5% and lung (28.7%), and lung (55%), | C1 organ score: skin [11]: 1 point for points and 3 points for | C1 organ score and efficacy: comprehensive score [12]: score 8;; also recorded: score 6;; also recorded: score 3;; also recorded: score 7; | C1 organ score and efficacy: efficacy [12]: efficacy: PR; also recorded: efficacy: SD | C3 organ score: esophagus [13]: 0 points for | C3 organ score: joint fascia [13]: 1 points and 1 point for points and 2 points for | C3 organ score: lower digestive tract [13]: 1 point for points | C3 organ score: lung [13]: tract, 3 points | C3 organ score: lung, percentage in parentheses [13]: 17% and lung (27.8%), and lung (55%), | C3 organ score: skin [13]: 1 point for points | C3 organ score and efficacy: comprehensive score [14]: score 8;; also recorded: score 5;; also recorded: score 2;; also recorded: score 7; | C3 organ score and efficacy: efficacy [14]: efficacy: PR; also recorded: efficacy: SD | C6 organ score: esophagus [15]: 0 points for and 1 point for points | C6 organ score: joint fascia [15]: 1 points and 0 points for and 2 points for | C6 organ score: lower digestive tract [15]: 1 point for points | C6 organ score: lung [15]: tract, 3 points and 3 points for and 2 points for | C6 organ score: lung, percentage in parentheses [15]: 15.9% and lung (28.4%), and lung (52.7%), | C6 organ score: skin [15]: 2 points for (2×) and 1 point for points (2×) | C6 organ score and efficacy: comprehensive score [16]: score 8;; also recorded: score 4;; also recorded: score 2;; also recorded: score 6; | C6 organ score and efficacy: efficacy [16]: efficacy: PR | C9 organ score and efficacy: comprehensive score [17]: score 6; | C9 organ score and efficacy: efficacy [17]: efficacy: PR | C9 organ score: eye [17]: skin, 2 points | C9 organ score: joint fascia [17]: 0 points | C9 organ score: lower digestive tract [17]: 0 points for | C9 organ score: lung [17]: tract, 3 points | C9 organ score: lung, percentage in parentheses [17]: 17.6% | C9 organ score: skin [17]: 0 points for | patients in complete response (CR) [18]: 1 patient | patients in partial response (PR) [18]: 7 patients | clinical benefit in the treatment of chronic graft-versus-host disease (patients evaluated in Table 2): clinical benefits | tolerability and safety (tablets, cGVHD subjects): good tolerability and safety
